{"source": "patent US8959984B2", "about": "“Proteome-wide quantification of small molecule binding to cellular target proteins” (priority 2007, dated 2015)", "key": {"[1]": {"molecular_target": "T1, EphB2 (Homo sapiens, UniProt P29323)", "T1 sequence (P29323 19-1055)": "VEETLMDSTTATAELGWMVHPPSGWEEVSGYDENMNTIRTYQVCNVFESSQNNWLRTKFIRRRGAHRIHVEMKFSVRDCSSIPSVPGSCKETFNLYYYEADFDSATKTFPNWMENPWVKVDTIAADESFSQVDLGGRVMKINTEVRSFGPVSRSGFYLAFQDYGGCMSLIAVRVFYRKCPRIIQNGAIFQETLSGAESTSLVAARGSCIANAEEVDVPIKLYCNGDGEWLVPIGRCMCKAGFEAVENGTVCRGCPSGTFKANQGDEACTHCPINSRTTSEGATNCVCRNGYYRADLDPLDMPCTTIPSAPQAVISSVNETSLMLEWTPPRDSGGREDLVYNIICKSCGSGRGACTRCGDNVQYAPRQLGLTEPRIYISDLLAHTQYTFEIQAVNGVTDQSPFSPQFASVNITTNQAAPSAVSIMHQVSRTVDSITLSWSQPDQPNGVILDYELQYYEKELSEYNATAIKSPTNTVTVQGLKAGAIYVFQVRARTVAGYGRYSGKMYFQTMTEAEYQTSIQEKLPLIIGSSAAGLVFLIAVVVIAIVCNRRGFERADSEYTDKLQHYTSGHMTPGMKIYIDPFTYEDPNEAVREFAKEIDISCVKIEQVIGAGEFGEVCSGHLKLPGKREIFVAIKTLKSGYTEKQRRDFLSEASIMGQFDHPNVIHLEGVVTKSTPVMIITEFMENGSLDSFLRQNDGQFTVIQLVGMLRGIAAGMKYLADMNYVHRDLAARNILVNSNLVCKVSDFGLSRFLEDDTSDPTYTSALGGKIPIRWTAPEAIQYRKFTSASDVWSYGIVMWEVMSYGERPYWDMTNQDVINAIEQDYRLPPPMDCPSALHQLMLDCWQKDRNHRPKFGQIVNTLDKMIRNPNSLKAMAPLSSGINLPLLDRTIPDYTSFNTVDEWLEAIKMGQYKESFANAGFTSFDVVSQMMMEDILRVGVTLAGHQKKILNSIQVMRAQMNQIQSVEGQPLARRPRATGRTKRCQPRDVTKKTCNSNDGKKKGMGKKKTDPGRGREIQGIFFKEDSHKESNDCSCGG", "assay": "binding to immobilized V16742 (IVA1/IVA2, HeLa lysate, MS)"}, "[2]": {"molecular_target": "CK1d (Homo sapiens, UniProt P48730)", "sequence (P48730 whole entry)": "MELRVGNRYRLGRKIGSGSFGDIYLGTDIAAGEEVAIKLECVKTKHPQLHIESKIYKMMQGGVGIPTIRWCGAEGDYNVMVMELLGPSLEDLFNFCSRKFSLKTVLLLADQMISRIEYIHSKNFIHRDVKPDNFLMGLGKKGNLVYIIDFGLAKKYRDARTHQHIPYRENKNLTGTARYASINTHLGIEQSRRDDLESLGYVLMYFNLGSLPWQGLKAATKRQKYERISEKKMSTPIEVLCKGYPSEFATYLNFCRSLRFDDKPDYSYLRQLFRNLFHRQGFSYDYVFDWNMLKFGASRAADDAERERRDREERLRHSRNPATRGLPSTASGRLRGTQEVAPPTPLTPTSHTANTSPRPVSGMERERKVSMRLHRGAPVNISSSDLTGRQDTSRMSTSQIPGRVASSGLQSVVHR", "assay": "binding to immobilized V16742 (IVA1/IVA2, HeLa lysate, MS)"}, "[3]": {"molecular_target": "T2, ACAD10 (Homo sapiens, UniProt Q6JQN1)", "T2 sequence (Q6JQN1 1-1059)": "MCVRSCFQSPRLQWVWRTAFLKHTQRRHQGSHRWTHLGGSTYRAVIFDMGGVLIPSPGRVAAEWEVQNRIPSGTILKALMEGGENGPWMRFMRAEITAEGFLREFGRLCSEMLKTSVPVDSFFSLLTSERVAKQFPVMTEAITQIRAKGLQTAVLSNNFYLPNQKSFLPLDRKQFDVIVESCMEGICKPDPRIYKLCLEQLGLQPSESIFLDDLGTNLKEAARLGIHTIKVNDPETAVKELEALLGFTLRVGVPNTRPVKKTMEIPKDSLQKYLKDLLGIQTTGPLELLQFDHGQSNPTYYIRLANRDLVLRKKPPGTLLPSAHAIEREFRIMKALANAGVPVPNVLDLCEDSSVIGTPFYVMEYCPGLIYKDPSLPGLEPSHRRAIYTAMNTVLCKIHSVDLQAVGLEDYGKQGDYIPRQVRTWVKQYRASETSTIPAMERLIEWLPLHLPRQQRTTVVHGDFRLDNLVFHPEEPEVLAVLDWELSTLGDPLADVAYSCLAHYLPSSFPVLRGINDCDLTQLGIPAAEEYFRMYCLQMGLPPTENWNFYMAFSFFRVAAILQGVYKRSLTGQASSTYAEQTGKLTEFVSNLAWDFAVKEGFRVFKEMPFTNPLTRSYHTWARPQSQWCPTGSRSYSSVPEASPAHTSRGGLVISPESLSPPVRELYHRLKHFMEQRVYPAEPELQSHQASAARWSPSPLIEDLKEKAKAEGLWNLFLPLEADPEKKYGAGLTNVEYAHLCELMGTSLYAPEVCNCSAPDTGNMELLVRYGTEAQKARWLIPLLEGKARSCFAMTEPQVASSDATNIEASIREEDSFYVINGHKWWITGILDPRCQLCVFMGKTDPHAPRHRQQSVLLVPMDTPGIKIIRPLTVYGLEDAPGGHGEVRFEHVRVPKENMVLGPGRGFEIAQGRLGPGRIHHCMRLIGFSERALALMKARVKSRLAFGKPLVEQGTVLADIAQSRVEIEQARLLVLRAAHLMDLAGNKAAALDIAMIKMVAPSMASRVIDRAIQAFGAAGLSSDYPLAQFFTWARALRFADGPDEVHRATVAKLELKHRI"}}, "note": "Like-named read-outs stand apart in the source and are kept apart here.", "data": [{"smiles": "CC(C)n1c(=O)ccc2cnc(Nc3ccc(OCCN)cc3)nc21", "note": "[compound 16742]", "values": [{"measurement": "Percent bound at 1.87 μM 16742 conc", "setting": "[1]; EXPERIMENT 1", "result": 4.79, "unit": "%"}, {"measurement": "Percent bound at 8.74 μM 16742 conc", "setting": "[1]; EXPERIMENT 1", "result": 17.01, "unit": "%"}, {"measurement": "Percent bound at 52 μM 16742 conc", "setting": "[1]; EXPERIMENT 1", "result": 66.97, "unit": "%"}, {"measurement": "Kd", "setting": "[1]; EXPERIMENT 1, read-out: Kd", "result": 30.6, "unit": "µM"}, {"measurement": "Percent bound at 1.87 μM 16742 conc", "setting": "[1]; EXPERIMENT 2", "result": 2.86, "unit": "%"}, {"measurement": "Percent bound at 8.74 μM 16742 conc", "setting": "[1]; EXPERIMENT 2", "result": 13.05, "unit": "%"}, {"measurement": "Percent bound at 52 μM 16742 conc", "setting": "[1]; EXPERIMENT 2", "result": 57.74, "unit": "%"}, {"measurement": "Kd", "setting": "[1]; EXPERIMENT 2, read-out: Kd", "result": 42.3, "unit": "µM"}, {"measurement": "Kd", "setting": "[1]; read-out: Kd Avg", "result": 36.5, "unit": "µM"}, {"measurement": "Percent bound at 1.87 μM 16742 conc", "setting": "[2]; EXPERIMENT 1", "result": 16.07, "unit": "%"}, {"measurement": "Percent bound at 8.74 μM 16742 conc", "setting": "[2]; EXPERIMENT 1", "result": 57.03, "unit": "%"}, {"measurement": "Percent bound at 52 μM 16742 conc", "setting": "[2]; EXPERIMENT 1", "result": 87.27, "unit": "%"}, {"measurement": "Kd", "setting": "[2]; EXPERIMENT 1, read-out: Kd", "result": 7.38, "unit": "µM"}, {"measurement": "Percent bound at 1.87 μM 16742 conc", "setting": "[2]; EXPERIMENT 2", "result": 19.73, "unit": "%"}, {"measurement": "Percent bound at 8.74 μM 16742 conc", "setting": "[2]; EXPERIMENT 2", "result": 70.68, "unit": "%"}, {"measurement": "Percent bound at 52 μM 16742 conc", "setting": "[2]; EXPERIMENT 2", "result": 87.40, "unit": "%"}, {"measurement": "Kd", "setting": "[2]; EXPERIMENT 2, read-out: Kd", "result": 5.07, "unit": "µM"}, {"measurement": "Kd", "setting": "[2]; read-out: Kd Avg", "result": 6.23, "unit": "µM"}]}, {"smiles": "COc1cc2ncnc(Nc3ccc(F)c(Cl)c3)c2cc1OCCCN1CCOCC1", "note": "[gefitinib]", "values": [{"measurement": "rAVERAGE (10 nM/0 nM Gef.)", "setting": "[3]", "result": 1.17}, {"measurement": "rAVERAGE (100 nM/0 nM Gef.)", "setting": "[3]", "result": 0.86}, {"measurement": "rAVERAGE (1000 nM/0 nM Gef.)", "setting": "[3]", "result": 1.07}, {"measurement": "rAVERAGE (10000 nM/0 nM Gef.)", "setting": "[3]", "result": 0.24}]}]}
